Experimental findings from US12545673B2, “Imidazopyridine derivative and pharmaceutical composition comprising same as active ingredient” (TSD LIFE SCIENCES CO., LTD., priority 2019, dated 2026) are described below.

Data set [1] concerns colorectal cancer cell line HT-29. In words: Cancer cell proliferation inhibitory activity evaluation 1 (CCK-8), HT-29. The data set is classed as cell-based. As to conditions: Homo sapiens, read-out: Cancer cell proliferation inhibitory activity HT29.
The test system of data set [2] is acute myeloid leukemia cell line U937. Kind of data set: Cancer cell proliferation inhibitory activity evaluation 1 (CCK-8), U937. It counts as cell-based. As to conditions: Homo sapiens, read-out: Cancer cell proliferation inhibitory activity U937.
The target in another data set is LRRK2 wild-type (Homo sapiens (Human), UniProt Q5S007). In words: Evaluation of inhibitory activity against LRRK2 (affinity bead competition binding), wild-type. As to conditions: read-out: Residual active values (%) LRRK2; for remaining binding at 0.1 µM: 100 nM; for remaining binding at 0.5 µM: 500 nM. The method in brief:
(§1)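 Competition binding against immobilized biotinylated ligand for DNA-tagged wild-type or G2019S LRRK2, produced from T7 phage-infected E. coli (MOI 0.4, 32° C.) lysate then HEK293 cells. Beads blocked and washed in SeaBlock buffer (1% BSA, 0.05% Tween 20, 1 mM DTT); compounds prepared as 40× stocks in 100% DMSO.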

For the next data set, the system named is TGF-β1. Kind of data set: Fibrosis inhibition evaluation 2, palmitic acid-induced HepG2, real-time PCR, TGF-β1.
For another data set, the target named is LRRK2 mutant (G2019S) (Homo sapiens (Human), UniProt Q5S007, G2019S). Kind of data set: Evaluation of inhibitory activity against LRRK2 (affinity bead competition binding), G2019S mutant. As to conditions: read-out: Residual active values (%) LRRK2(G2019S); for remaining binding at 0.1 µM: 100 nM; for remaining binding at 0.5 µM: 500 nM. Summed up: as §1
Data set [3] deals with acute myeloid leukemia cell line U937. Kind of data set: Cancer cell proliferation inhibitory activity evaluation 2 (CCK-8), U937. The data set is classed as cell-based. As to conditions: Homo sapiens, read-out: Cancer cell proliferation inhibitory activity U937.
A further data set deals with Fibronectin-1. Kind of data set: Fibrosis inhibition evaluation 2, palmitic acid-induced HepG2, real-time PCR, Fibronectin-1.
The test system of data set [4] is gastric cancer cell line AGS. In words: Cancer cell proliferation inhibitory activity evaluation 2 (CCK-8), AGS. As to conditions: Homo sapiens, read-out: Cancer cell proliferation inhibitory activity AGS. The data set is classed as cell-based.
Another data set deals with α-SMA. In words: Fibrosis inhibition evaluation 2, palmitic acid-induced HepG2, real-time PCR, α-SMA. As to conditions: palmitic acid-induced HepG2 (Table 8).
The subject of data set [5] is acute lymphoblastic leukemia cell line Jurkat. Kind of data set: Cancer cell proliferation inhibitory activity evaluation 2 (CCK-8), Jurkat. It counts as cell-based. As to conditions: Homo sapiens.
Data set [6] relates to chronic myeloid leukemia cell line K562. Kind of data set: Cancer cell proliferation inhibitory activity evaluation 1 (CCK-8), K562. As to conditions: Homo sapiens, read-out: Cancer cell proliferation inhibitory activity K562. It counts as cell-based.
The target in a further data set is MLK3 (Homo sapiens (Human), UniProt Q16584). In words: Evaluation of inhibitory activity of enzyme units, MLK3 ([γ-33P]-ATP filter assay). As to conditions: for IC50: read-out: IC50(nM) MLK3.
In data set [7] the test system is human breast cancer cell line MDA-MB-231. Kind of data set: Cancer cell proliferation inhibitory activity evaluation 1 (CCK-8), MDA-MB-231. It counts as cell-based.
The test system of the next data set is influenza virus PR8. Kind of data set: microbe, parasite or virus in culture. It counts as cell-based. As to conditions: for EC50: unidentified influenza virus, PR8, MDCK, read-out: Antiviral activity (EC50, μM) PR8.
A further data set has as its system influenza virus HK. Kind of data set: microbe, parasite or virus in culture. As to conditions: for EC50: unidentified influenza virus, MDCK, read-out: Antiviral activity (EC50, μM) HK. The data set is classed as cell-based.
A short description of a further data set: in vitro. As to conditions: dog.
The subject of another data set is influenza virus LE. Kind of data set: microbe, parasite or virus in culture. The data set is classed as cell-based. As to conditions: for EC50: unidentified influenza virus, MDCK, read-out: Antiviral activity (EC50, μM) LE.
The target of a further data set is MLK1 (Homo sapiens (Human), UniProt P80192). Kind of data set: Evaluation of inhibitory activity of enzyme units, MLK1 ([γ-33P]-ATP filter assay). The data set is classed as biochemical.
In a further data set the target is MLK2 (Homo sapiens (Human), UniProt Q02779). Kind of data set: Evaluation of inhibitory activity of enzyme units, MLK2 ([γ-33P]-ATP filter assay). It counts as biochemical.
Setting [8] is: 72 h, read-out: Cancer cell proliferation inhibitory activity Jurkat.
[9] abbreviates: U-937, 10 μM, 72 hours, CCK-8 (Table 3).
Setting [10] is: 10 μM, 72 hours, CCK-8, read-out: Cancer cell proliferation inhibitory activity Jurkat.

pIC50: −log10 of the molar value. Read-outs that look alike come from different tables or passages of the source.

Sequence of MLK3 (Q16584 whole entry, looked up): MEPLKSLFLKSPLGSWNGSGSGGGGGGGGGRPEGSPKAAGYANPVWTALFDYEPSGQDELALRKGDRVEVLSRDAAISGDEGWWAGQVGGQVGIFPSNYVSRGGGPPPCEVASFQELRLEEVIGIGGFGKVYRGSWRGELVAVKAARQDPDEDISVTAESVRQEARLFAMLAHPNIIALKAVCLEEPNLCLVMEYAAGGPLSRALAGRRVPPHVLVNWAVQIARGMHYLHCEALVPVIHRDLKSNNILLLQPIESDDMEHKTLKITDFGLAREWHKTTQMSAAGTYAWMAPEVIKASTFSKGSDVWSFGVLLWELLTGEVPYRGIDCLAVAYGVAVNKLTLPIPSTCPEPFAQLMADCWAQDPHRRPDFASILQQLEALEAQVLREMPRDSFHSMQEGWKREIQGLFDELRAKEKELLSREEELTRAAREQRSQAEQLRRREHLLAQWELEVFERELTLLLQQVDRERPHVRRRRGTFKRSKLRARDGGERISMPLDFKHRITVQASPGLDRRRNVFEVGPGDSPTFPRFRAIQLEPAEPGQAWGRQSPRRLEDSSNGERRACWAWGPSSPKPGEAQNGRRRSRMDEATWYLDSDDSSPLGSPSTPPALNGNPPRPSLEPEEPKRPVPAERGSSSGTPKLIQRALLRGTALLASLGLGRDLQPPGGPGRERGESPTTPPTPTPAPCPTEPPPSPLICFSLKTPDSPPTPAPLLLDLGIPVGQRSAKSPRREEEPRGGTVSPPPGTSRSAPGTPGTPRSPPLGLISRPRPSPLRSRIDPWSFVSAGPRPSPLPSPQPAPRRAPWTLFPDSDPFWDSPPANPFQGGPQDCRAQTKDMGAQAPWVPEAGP
Sequence of MLK2 (Q02779 whole entry, looked up): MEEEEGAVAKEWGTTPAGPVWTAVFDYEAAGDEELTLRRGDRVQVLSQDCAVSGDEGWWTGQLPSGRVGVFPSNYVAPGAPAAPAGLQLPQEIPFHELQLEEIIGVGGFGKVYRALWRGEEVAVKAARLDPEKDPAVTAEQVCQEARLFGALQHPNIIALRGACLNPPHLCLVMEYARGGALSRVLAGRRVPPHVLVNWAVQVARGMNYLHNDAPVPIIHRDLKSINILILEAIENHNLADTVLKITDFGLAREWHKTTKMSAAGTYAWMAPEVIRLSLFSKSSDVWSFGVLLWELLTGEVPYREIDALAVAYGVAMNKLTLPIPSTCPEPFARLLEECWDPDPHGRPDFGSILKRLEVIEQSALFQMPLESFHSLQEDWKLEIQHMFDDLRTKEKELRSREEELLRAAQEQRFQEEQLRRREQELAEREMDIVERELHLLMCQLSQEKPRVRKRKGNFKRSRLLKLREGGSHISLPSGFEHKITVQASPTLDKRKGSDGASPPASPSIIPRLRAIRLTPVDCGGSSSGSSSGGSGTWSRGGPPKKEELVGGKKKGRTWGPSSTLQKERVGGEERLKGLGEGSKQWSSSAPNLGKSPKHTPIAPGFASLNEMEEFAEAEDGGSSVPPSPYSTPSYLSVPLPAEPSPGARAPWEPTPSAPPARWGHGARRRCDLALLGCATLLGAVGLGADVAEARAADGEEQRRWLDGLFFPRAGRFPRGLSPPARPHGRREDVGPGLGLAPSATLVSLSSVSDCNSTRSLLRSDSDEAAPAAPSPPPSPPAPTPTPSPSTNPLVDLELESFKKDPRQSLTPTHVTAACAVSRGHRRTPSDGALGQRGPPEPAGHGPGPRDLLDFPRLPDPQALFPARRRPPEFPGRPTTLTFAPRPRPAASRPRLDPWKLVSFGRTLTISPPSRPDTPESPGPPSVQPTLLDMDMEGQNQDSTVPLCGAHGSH
Sequence of LRRK2 wild-type (Q5S007 whole entry, looked up): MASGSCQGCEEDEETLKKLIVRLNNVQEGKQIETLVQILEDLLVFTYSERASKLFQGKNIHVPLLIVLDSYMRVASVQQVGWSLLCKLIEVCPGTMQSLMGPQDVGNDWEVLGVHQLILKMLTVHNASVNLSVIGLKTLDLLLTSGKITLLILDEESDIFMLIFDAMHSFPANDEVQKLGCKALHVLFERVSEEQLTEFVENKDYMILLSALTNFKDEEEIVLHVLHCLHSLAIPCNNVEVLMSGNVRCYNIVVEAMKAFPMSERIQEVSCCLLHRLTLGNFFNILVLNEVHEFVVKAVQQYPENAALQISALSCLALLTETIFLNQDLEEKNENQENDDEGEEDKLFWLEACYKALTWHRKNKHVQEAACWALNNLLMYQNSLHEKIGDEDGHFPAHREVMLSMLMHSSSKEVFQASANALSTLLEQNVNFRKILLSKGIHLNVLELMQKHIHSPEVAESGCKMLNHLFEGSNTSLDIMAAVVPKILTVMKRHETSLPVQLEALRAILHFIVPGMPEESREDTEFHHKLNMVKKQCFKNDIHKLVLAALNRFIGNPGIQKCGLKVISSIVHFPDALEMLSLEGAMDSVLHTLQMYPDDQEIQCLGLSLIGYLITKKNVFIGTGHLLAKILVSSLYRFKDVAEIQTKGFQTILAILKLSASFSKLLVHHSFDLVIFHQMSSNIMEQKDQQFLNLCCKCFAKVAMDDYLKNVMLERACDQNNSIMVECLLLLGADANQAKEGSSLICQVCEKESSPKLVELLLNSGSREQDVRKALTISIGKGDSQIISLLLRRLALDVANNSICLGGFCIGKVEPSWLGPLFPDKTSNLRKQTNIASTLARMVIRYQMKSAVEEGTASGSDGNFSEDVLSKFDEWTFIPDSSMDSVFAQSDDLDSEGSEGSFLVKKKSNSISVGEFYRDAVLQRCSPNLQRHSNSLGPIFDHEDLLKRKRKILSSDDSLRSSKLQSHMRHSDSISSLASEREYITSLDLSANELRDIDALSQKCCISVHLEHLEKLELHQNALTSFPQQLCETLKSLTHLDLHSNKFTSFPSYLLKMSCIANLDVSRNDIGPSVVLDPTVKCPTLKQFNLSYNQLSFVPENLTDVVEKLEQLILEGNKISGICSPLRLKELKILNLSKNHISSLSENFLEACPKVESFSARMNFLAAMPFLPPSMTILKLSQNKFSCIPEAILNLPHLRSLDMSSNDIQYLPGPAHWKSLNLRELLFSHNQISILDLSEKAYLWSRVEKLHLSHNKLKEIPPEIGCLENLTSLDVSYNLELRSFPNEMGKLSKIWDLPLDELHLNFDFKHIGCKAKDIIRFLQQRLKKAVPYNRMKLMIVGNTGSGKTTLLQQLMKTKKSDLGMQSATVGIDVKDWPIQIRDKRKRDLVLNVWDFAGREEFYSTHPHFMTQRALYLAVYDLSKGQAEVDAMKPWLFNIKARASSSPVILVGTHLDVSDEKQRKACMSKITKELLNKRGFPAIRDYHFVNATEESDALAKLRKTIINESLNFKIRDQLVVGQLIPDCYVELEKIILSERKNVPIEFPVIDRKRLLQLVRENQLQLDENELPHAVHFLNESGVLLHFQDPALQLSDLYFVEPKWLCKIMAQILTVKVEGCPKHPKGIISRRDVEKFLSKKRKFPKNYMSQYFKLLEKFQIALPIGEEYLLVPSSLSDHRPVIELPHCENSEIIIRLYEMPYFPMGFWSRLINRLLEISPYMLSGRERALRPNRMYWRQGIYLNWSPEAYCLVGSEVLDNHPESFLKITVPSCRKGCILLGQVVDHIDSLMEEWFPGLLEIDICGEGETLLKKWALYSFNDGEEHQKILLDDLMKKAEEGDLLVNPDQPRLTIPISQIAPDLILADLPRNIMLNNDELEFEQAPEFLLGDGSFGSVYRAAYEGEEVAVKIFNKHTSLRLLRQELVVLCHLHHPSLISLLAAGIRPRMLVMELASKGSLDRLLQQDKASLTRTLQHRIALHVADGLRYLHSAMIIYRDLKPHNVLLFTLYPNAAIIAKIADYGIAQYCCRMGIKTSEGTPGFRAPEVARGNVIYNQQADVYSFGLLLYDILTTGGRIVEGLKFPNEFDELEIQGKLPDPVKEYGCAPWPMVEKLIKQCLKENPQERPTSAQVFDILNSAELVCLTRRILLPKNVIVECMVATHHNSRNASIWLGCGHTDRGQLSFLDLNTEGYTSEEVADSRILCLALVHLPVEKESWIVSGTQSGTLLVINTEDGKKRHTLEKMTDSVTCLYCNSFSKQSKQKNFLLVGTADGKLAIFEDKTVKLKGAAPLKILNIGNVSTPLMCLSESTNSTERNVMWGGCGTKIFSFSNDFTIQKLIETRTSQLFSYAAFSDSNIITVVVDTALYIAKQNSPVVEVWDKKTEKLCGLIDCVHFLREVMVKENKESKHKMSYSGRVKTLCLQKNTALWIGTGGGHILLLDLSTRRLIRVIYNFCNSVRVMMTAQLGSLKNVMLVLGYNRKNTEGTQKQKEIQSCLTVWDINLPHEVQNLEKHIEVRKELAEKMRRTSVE
Sequence of LRRK2 mutant (G2019S) (Q5S007 whole entry G2019S, looked up): as the sequence (Q5S007 whole entry, looked up) above, with G2019S counted along it

Take `CCS(=O)(=O)N1CC[C@H](Nc2c(Br)cnc3[nH]c(-c4cc(C)n(-c5cccc(N6CCOCC6)c5)c4C)nc23)C1` [Example 2, (S)-6-bromo-2-(2,5-dimethyl-1-(3-morpholinophenyl)-1H-pyrrol-3-yl)-N-(1-(ethylsulfonyl)pyrrolidine-3-yl)-3H-imidazo[4,5-b]pyridine-7-amine]: the inhibition at 10 µM was more than 50% in data set [1] (HT-29, 72 h); more than 50% in data set [2] (U-937, 72 h); 10 to 50% in data set [3] (U-937, 72 h); more than 50% in data set [4] (72 h); 10 to 50% in [5] (setting [8]); more than 50% in data set [6] (K562, 72 h). Moreover, the inhibition at 10 µM in [7] (MDA-MB-231, 72 h, read-out: Cancer cell proliferation inhibitory activity MDAMB231) was more than 50%. Moreover, the results for the remaining binding at 0.1 µM at LRRK2 wild-type and at LRRK2 mutant (G2019S) were 17% and 4%, respectively. In addition, the remaining binding at 0.5 µM at LRRK2 wild-type was determined as 3.5%; at LRRK2 mutant (G2019S) it was 0.8%. Also, the “Relative degree of expression inhibition (%) TGF-β1” value in the data set with TGF-β1 turned out to be 97.39%. Also, the “Relative degree of expression inhibition (%) Fibronectin-1” value in the data set with Fibronectin-1 was 77.72%. The “Relative degree of expression inhibition (%) α-SMA” value in the data set on α-SMA came out at 48.35%. Besides, the IC50 on MLK3 came to 4 nM.
For the compound `CCS(=O)(=O)N1CC[C@H](Nc2c(Br)cnc3nc(-c4cc(C)n(-c5ccc(OCCN6CCOCC6)cc5)c4C)[nH]c23)C1` [Example 4, (S)-6-bromo-2-(2,5-dimethyl-1-(4-(2-morpholinoethoxy)phenyl)-1H-pyrrol-3-yl)-N-(1-(ethylsulfonyl)pyrrolidine-3-yl)-1H-imidazo[4,5-b]pyridine-7-amine], the inhibition at 10 µM in data set [1] (HT-29, 10 μM, 72 hours, CCK-8) is more than 50%; in [2] (U-937, 10 μM, 72 hours, CCK-8 (Table 2)), more than 50%; in data set [3] (setting [9]) it was more than 50%; in data set [4] (10 μM, 72 hours, CCK-8), more than 50%; in data set [5] (setting [10]) it was more than 50%; in [6] (K562, 10 μM, 72 hours, CCK-8), more than 50%. Besides, the inhibition at 10 µM in data set [7] (MDA-MB-231, 10 μM, 72 hours, CCK-8, read-out: Cancer cell proliferation inhibitory activity MDAMB231) was 10 to 50%. Besides, the EC50 came out at 11.1 µM with influenza virus PR8, 9.8 µM in the data set on influenza virus HK and 9.9 µM in the data set on influenza virus LE. Also, the “Selectivity index: CC50/EC50 HK” value in the data set on influenza virus HK is given as more than 10.2. This compound yielded a CC50 at 3 days in “in vitro” of more than 100 µM. Further, the “Selectivity index: CC50/EC50 LE” value in the data set on influenza virus LE was more than 10.1.
Consider `CCS(=O)(=O)N1CC[C@H](Nc2c(Br)cnc3nc(-c4cc(C)n(-c5cccc(NS(C)(=O)=O)c5)c4C)[nH]c23)C1` [Example 12, (S)—N-(3-(3-(6-bromo-7-((1-(ethylsulfonyl)pyrrolidine-3-yl)amino)-1H-imidazo[4,5-b]pyridine-2-yl)-2,5-dimethyl-1H-pyrrol-1-yl)phenyl) methanesulfonamide], for which the EC50 with influenza virus PR8 is 100 µM; in the data set on influenza virus HK, 27 µM; in the data set with influenza virus LE it was more than 100 µM. For the same compound, in the data set on influenza virus HK, the “Selectivity index: CC50/EC50 HK” value is reported as more than 3.7. Further, the CC50 at 3 days in the data set “in vitro” was more than 100 µM. Further, the IC50 against MLK1 was determined as 52 nM; on MLK2, 65 nM; at MLK3, 7 nM. In addition, the remaining binding at 0.1 µM came to 16% at LRRK2 wild-type and 3.6% at LRRK2 mutant (G2019S). Besides, the values for the remaining binding at 0.5 µM at LRRK2 wild-type and on LRRK2 mutant (G2019S) were 3.7% and 0.5%, respectively. Further, in the data set on TGF-β1, the “Relative degree of expression inhibition (%) TGF-β1” value came to 113.03%. The inhibition at 10 µM in data set [3] (U-937, 72 h) was 10 to 50%; in data set [4] (72 h) it was more than 50%; in data set [5] (setting [8]), 10 to 50%. Moreover, the “Relative degree of expression inhibition (%) Fibronectin-1” value in the data set with Fibronectin-1 is on record as 74.32%. The “Relative degree of expression inhibition (%) α-SMA” value with α-SMA was 49.92%.
As for `CCS(=O)(=O)N1CC[C@H](Nc2c(Br)cnc3[nH]c(-c4cc(C)n(-c5cc(S(N)(=O)=O)ccc5Cl)c4C)nc23)C1` [Example 17, 3-(3-(6-bromo-7-(((S)-1-(ethylsulfonyl)pyrrolidine-3-yl)amino)-3H-imidazo[4,5-b]pyridine-2-yl)-2,5-dimethyl-1H-pyrrol-1-yl)-4-chlorobenzenesulfonamide], the “Selectivity index: CC50/EC50 PR8” value with influenza virus PR8 is more than 1.1. For the same compound, the values for the EC50 with influenza virus PR8, in the data set on influenza virus HK and in the data set with influenza virus LE were 92.9 µM, 10.8 µM and more than 100 µM, respectively. The “Selectivity index: CC50/EC50 HK” value in the data set on influenza virus HK is reported as more than 9.3. This compound also returned a CC50 at 3 days in the data set “in vitro” of more than 100 µM. Also, the inhibition at 10 µM is 10 to 50% in [3] (setting [9]); more than 50% in data set [4] (10 μM, 72 hours, CCK-8); more than 50% in data set [5] (setting [10]). For the same compound, the pIC50 against MLK3 was 7.92.
Regarding `CCS(=O)(=O)N1CC[C@H](Nc2c(Br)cnc3nc(-c4cc(C)n(-c5cccc(S(N)(=O)=O)c5)c4C)[nH]c23)C1` [Example 23, (S)-3-(3-(6-bromo-7-((1-(ethylsulfonyl)pyrrolidine-3-yl)amino)-1H-imidazo[4,5-b]pyridine-2-yl)-2,5-dimethyl-1H-pyrrol-1-yl)benzenesulfonamide], the concentration for a half-maximal effect (EC50) is more than 100 µM with influenza virus PR8, 31.6 µM in the data set on influenza virus HK and more than 100 µM in the data set with influenza virus LE. Besides, the “Selectivity index: CC50/EC50 HK” value in the data set on influenza virus HK is reported as more than 3.2. In the data set “in vitro”, this compound showed a CC50 at 3 days of more than 100 µM. Besides, the values for the IC50 at MLK1, against MLK2 and on MLK3 were 25 nM, 56 nM and 17 nM, respectively. In addition, the inhibition at 10 µM in data set [3] (U-937, 72 h) is 10 to 50%; in [4] (72 h), 10 to 50%; in [5] (setting [8]) it was more than 50%.
Take `Cc1cc(-c2nc3c(Nc4ccc5c(c4)OCO5)c(Br)cnc3[nH]2)c(C)n1-c1cccc(S(N)(=O)=O)c1` [Example 44, 3-(3-(7-(benzo[d][1,3]dioxole-5-yl-amino)-6-bromo-3H-imidazo[4,5-b]pyridine-2-yl)-2,5-dimethyl-1H-pyrrol-1-yl)benzenesulfonamide]: the IC50 stood at 109 nM against MLK1, 211 nM at MLK2 and 27 nM at MLK3. Also, the “Relative degree of expression inhibition (%) TGF-β1” value with TGF-β1 is 57.05%. The inhibition at 10 µM in data set [3] (setting [9]) was 10 to 50%; in data set [4] (10 μM, 72 hours, CCK-8) it was 10 to 50%; in [5] (setting [10]) it was 10 to 50%. For the same compound, the “Relative degree of expression inhibition (%) Fibronectin-1” value in the data set on Fibronectin-1 is given as 75.60%. Moreover, the “Relative degree of expression inhibition (%) α-SMA” value with α-SMA is listed as 73.45%.
As to `COCCOc1ccc(Nc2c(Br)cnc3[nH]c(-c4cc(C)n(-c5ccc6c(c5)OCO6)c4C)nc23)cc1` [Example 45, 2-(1-(benzo[d][1,3]dioxole-5-yl)-2,5-dimethyl-1H-pyrrol-3-yl)-6-bromo-N-(4-(2-methoxyethoxy)phenyl)-3H-imidazo[4,5-b]pyridine-7-amine], the half-maximal inhibitory concentration (IC50) on MLK1 amounted to 85 nM; on MLK2 it was 524 nM; on MLK3, 32 nM. The “Relative degree of expression inhibition (%) TGF-β1” value with TGF-β1 was determined as 33.15%. Moreover, the inhibition at 10 µM in [3] (setting [9]) was 10 to 50%; in [4] (10 μM, 72 hours, CCK-8) it was 10 to 50%; in [5] (setting [10]), less than 10%. Further, in the data set on Fibronectin-1, the “Relative degree of expression inhibition (%) Fibronectin-1” value turned out to be 60.64%. In addition, in the data set with α-SMA, the “Relative degree of expression inhibition (%) α-SMA” value worked out at 74.97%.
